{"source": "patent US20190151315A1", "about": "“Drug For Preventing Or Treating Lactic Acidosis” (KEIO UNIVERSITY, priority 2016, published 2019)", "assay_type_in_all_cases": "in vivo, mouse (C57BL/6)", "key": {"MALA model mice": {"test_system": "MALA model mice", "assay": "Survival analysis in metformin-associated lactic acidosis (MALA) model mice (Test Example 1)", "conditions": "for survival rate as compared to vehicle alone: 30 mg/kg oral", "text": "(§1) All mice used in Examples were 7- to 13-week-old wild-type C57BL/6 male mice obtained from CLEA Japan, Inc. The mice were fed ad libitum on a 12-hour light/12-hour dark cycle in a specific pathogen-free facility.\n(§2) In statistical analysis in Examples, power calculation for determining a sample size was not performed. Mice that died of lactic acidosis before treatment with a vehicle or Compound A were excluded from mice to be analyzed. For a comparison of normally distributed data between groups, analysis was performed using unpaired Student's t-test. A difference in survival rate was analyzed by log-rank (Mantel-Cox) test through use of GraphPad Prism software.\nIn the morning and evening of day 1, and the morning of day 2, 0.25 mg/g body weight of metformin dissolved in distilled water was orally administered to 8-week-old wild-type C57BL/6 male mice to produce MALA model mice. Immediately after the metformin administration to the model mice on day 2, a vehicle (0.5% methyl cellulose; 64625; Sigma-Aldrich) or 30 mg/kg body weight of Compound A (produced in Example 1) was orally administered. After 4 hours from the oral administration, the model mice were administered with 0.4 mg/g body weight of lactic acid dissolved in 0.9% NaCl by intraperitoneal injection. Kaplan-Meier survival analysis was performed for those mice."}, "[1]": {"test_system": "MALA-complicated CKD model mice", "assay": "Survival analysis in MALA-complicated chronic kidney disease (CKD) model mice, Compound A (Test Example 2)", "conditions": "for survival rate as compared to vehicle alone: 10 mg/kg oral", "text": "as §1, §2\n(§3) 7-Week-old wild-type C57BL/6 male mice were fed ad libitum with a standard or 0.2% adenine feed for 6 weeks. The population fed with the 0.2% adenine feed was used as CKD model mice.\n(§4) Further, the CKD model mice were administered with 0.5 mg/g body weight of metformin on day 1 to produce a MALA-complicated CKD mouse model. After 4 hours from the metformin administration, a whole blood sample (5 μl) was collected from the tail vein, and a blood lactate level was measured using Lactate Pro Test Meter and Lactate Pro Test Strip (Cycle Classic Imports). […] Kaplan-Meier survival analysis was performed for those mice."}, "[2]": {"test_system": "MALA-complicated CKD model mice", "assay": "Survival analysis in MALA-complicated chronic kidney disease (CKD) model mice, Compound B (Test Example 3)", "conditions": "for survival rate as compared to vehicle alone: 30 mg/kg oral", "text": "as §1, §2, §3, §4"}}}
{"smiles": "Cc1nc(CC2CCN(c3ccc(-c4ccc(CO)cc4)cc3)CC2)nc(C(=O)NCC(=O)O)c1O", "note": "[Compound A, ({[5-hydroxy-2-({1-[4′-(hydroxymethyl)biphenyl-4-yl]piperidin-4-yl}methyl)-6-methylpyrimidin-4-yl]carbonyl}amino)acetic acid]", "values": [{"measurement": "survival rate as compared to vehicle alone (Kaplan-Meier, FIG. 1)", "setting": "MALA model mice; 30 mg/kg body weight oral, single, metformin 0.25 mg/g x3, lactic acid 0.4 mg/g i.p. after 4 hours", "value": "significantly high survival rate"}, {"measurement": "survival rate as compared to vehicle alone", "setting": "MALA model mice; after 24 hours", "value": "about 1.8 fold"}, {"measurement": "survival rate as compared to vehicle alone", "setting": "MALA model mice; after 48 hours", "value": "about 2.8 fold"}, {"measurement": "survival rate as compared to vehicle alone", "setting": "MALA model mice; after 72 hours", "value": "about 2.6 fold"}, {"measurement": "survival rate as compared to vehicle alone", "setting": "MALA model mice; after 96 hours", "value": "about 2.4 fold"}, {"measurement": "survival rate as compared to vehicle alone", "setting": "MALA model mice; after 120 hours", "value": "about 2.6 fold"}, {"measurement": "survival rate as compared to vehicle alone (Kaplan-Meier, FIG. 2)", "setting": "[1]; 10 mg/kg body weight oral, single, mice with blood lactate more than 8 mM after metformin 0.5 mg/g", "value": "significantly high survival rate"}, {"measurement": "survival rate as compared to vehicle alone", "setting": "[1]; after 24 hours", "value": "about 2.9 fold"}, {"measurement": "survival rate as compared to vehicle alone", "setting": "[1]; after 48 hours", "value": "about 5.8 fold"}, {"measurement": "survival rate as compared to vehicle alone", "setting": "[1]; after 72 hours", "value": "about 5.8 fold"}]}
{"smiles": "Cc1nc(CC2CCN(c3ccc(-c4ccc(C[C@H](C)O)cc4)cc3)CC2)nc(C(=O)NCC(=O)O)c1O", "note": "[Compound B, [({5-hydroxy-2-[(1-{4′-[(2S)-2-hydroxypropyl]biphenyl-4-yl}piperidin-4-yl)methyl]-6-methylpyrimidin-4-yl}carbonyl)amino]acetic acid]", "values": [{"measurement": "survival rate as compared to vehicle alone (Kaplan-Meier, FIG. 3)", "setting": "[2]; 30 mg/kg body weight oral, single, mice with blood lactate more than 8 mM after metformin 0.5 mg/g", "value": "significantly high survival rate"}, {"measurement": "survival rate as compared to vehicle alone", "setting": "[2]; after 24 hours", "value": "about 1.7 fold"}, {"measurement": "survival rate as compared to vehicle alone", "setting": "[2]; after 48 hours", "value": "about 2.0 fold"}, {"measurement": "survival rate as compared to vehicle alone", "setting": "[2]; after 72 hours", "value": "about 2.0 fold"}]}
